Activity calls are given as the source filed them. The rule behind the calls is not given here.
Experiments:
CV-1 [1] = assay: Inhibition of RXRalpha transcriptional activity in african green monkey CV1 cells co-expressing with TREpal-tkCAT at 10 uM by reporter gene assay; type: cell-based; conditions: Chlorocebus aethiops
CV-1 [2] = assay: Inhibition of RXRalpha transcriptional activity in african green monkey CV1 cells co-expressing with TREpal-tkCAT by reporter gene assay; type: cell-based; conditions: Chlorocebus aethiops

| Structure (SMILES) | Activity (CV-1 [1]) | Activity (CV-1 [2]) |
| --- | --- | --- |
| COc1ccc(O)c2c(=O)c3cc(O)ccc3oc12 | Active |  |
| CC(C)=CCC/C(C)=C/Cc1c(O)c(O)cc2c(=O)c3c(O)c(CC=C(C)C)c(O)cc3oc12 | Active |  |
| COc1cc2oc3cc(O)c(O)c(C/C=C(\C)CCC=C(C)C)c3c(=O)c2c(O)c1C/C=C(\C)CCC=C(C)C | Active |  |
| COc1cc2oc3cc(O)c(O)c(CCC(C)(C)O)c3c(=O)c2c(O)c1CC=C(C)C | Active | Dose-dependent effect |
| CC(C)=CCc1c(O)c(CC=C(C)C)c2oc3cc(O)c(O)cc3c(=O)c2c1O | Active |  |
| CC(C)=CCC/C(C)=C/Cc1c(O)c(CC=C(C)C)c(O)c2c(=O)c3cc(O)c(O)cc3oc12 | Active |  |
| COc1cc2c(=O)c3c(O)cc(O)cc3oc2cc1O | Active |  |
| COc1c(O)ccc2oc3cccc(O)c3c(=O)c12 | Active | Dose-dependent effect |
| COc1c(O)ccc2oc3c(O)ccc(O)c3c(=O)c12 | Active | Dose-dependent effect |

— ChEMBL document CHEMBL1177755, “Bioactive xanthones from the stems of Cratoxylum formosum ssp. pruniflorum” (J Nat Prod, 2010)
